These results are taken from article PMC4359714 (Naunyn-Schmiedeberg's Archives of Pharmacology, 2015).

The nature of data set [1]: Plasma protein binding by ultracentrifugation. In kind it is in vitro ADME. Conditions: male, rat plasma. The procedure:
The unbound fraction in plasma was determined by ultracentrifugation.

Data set [2] has as its system cold pressor effect in rats. The data set can be described thus: Cold-induced increase in blood pressure, cold pressor test (CPT). In kind it is in vivo, rat. As to conditions: 10 mg/kg p.o. The procedure: 2 h prior to anesthesia with sodium pentobarbital at 60 mg/kg i.p. Blood pressure was recorded for 5 min for “pre-cold baseline” and an additional 5 min during immersion of the paws and ventral half of the body in ice water. Mean blood pressure (MBP) was derived electronically using Digi-Med Blood Pressure Analyzer (Model 400). Plasma was collected through the artery catheter immediately after the cold pressor test for pharmacokinetic analysis. Percent increase from baseline and percent inhibition attributed to treatment with test compound were then determined using the following formula: (1) percent increase from baseline (mmHg) cold pressor effect = [(cold-evoked change in MBP)/MBP pre-cold] × 100; (2) percent inhibition of cold pressor effect = [1 − (cold-evoked change in MBP post-test compound/cold-evoked change in MBP post-vehicle)] × 100.

Turning to `C[C@H](NC(=O)N1CCc2cccnc2[C@H]1c1ccc(C(F)(F)F)cc1)C(F)(F)F` [AMG2850, (R)-8-(4-(trifluoromethyl)phenyl)-N-((S)-1,1,1-trifluoropropan-2-yl)-5,6-dihydro-1,7-naphthyridine-7(8H)-carboxamide], the fraction unbound – broadly, the share of the substance not bound to proteins or other matrix – at 15 min, 5 ug/mL in data set [1] was 0.119. For the same compound, the “effect on cold pressor response” value in data set [2] is “fully blocked”.
